Assays:
human P2X2/3 receptor = target: T1, human P2X2/3 receptor (Homo sapiens, UniProt P56373+Q9UBL9); experiment: P2X2/3 FLIPR (Fluorometric Imaging Plate Reader) assay; format: cell-based; conditions: CHO-K1 cells transfected with human P2X2/3; agonist α,β-meATP 5 μM; FLIPR calcium fluorescence; read-out: pKi P2X2/3 (converted)
T1 construct: expressed in transfected cells; host or cells: CHO-K1
T1 sequence (Q9UBL9 1-471): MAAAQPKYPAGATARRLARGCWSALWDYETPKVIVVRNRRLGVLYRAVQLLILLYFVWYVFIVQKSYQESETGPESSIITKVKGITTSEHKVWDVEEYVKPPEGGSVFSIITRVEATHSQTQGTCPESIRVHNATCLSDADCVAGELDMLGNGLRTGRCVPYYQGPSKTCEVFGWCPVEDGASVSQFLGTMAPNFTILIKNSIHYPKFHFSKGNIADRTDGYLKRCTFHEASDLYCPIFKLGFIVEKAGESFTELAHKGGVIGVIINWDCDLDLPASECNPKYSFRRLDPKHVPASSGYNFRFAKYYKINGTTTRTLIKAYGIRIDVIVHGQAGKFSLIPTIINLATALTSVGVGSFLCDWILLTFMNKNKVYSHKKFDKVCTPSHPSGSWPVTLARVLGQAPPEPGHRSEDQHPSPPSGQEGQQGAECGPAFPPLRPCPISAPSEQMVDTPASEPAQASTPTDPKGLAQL
T1 sequence (P56373 1-397): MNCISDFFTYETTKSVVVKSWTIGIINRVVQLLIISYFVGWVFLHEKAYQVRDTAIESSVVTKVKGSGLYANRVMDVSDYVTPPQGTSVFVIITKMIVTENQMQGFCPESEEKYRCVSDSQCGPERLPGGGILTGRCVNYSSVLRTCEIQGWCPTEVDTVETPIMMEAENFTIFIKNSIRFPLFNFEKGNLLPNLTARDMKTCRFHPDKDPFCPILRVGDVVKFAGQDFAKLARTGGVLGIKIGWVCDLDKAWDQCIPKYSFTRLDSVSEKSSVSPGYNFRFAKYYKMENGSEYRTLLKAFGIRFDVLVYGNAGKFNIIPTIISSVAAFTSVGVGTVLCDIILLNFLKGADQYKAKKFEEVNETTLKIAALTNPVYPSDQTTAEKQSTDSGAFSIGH
Method: (§1) CHO-K1 cells were transfected with cloned rat P2X3 or human P2X2/3 receptor subunits and passaged in flasks. 18-24 hours before the FLIPR experiment, cells were released from their flasks, centrifuged, and resuspended in nutrient medium at 2.5×10^5 cells/ml. The cells were aliquoted into black-walled 96-well plates at a density of 50,000 cells/well and incubated overnight in 5% CO2 at 37° C. On the day of the experiment, cells were washed in FLIPR buffer (calcium- and magnesium-free Hank's balanced salt solution, 10 mM HEPES, 2 mM CaCl2, 2.5 mM probenecid; FB). Each well received 100 μl FB and 100 μl of the fluorescent dye Fluo-3 AM [2 μM final conc.]. After a 1 hour dye loading incubation at 37° C., the cells were washed 4 times with FB, and a final 75 μl/well FB was left in each well.
(§2) Test compounds (dissolved in DMSO at 10 mM and serially diluted with FB) or vehicle were added to each well (25 μl of a 4× solution) and allowed to equilibrate for 20 minutes at room temperature. The plates were then placed in the FLIPR and a baseline fluorescence measurement (excitation at 488 nm and emission at 510-570 nm) was obtained for 10 seconds before a 100 μl/well agonist or vehicle addition. The agonist was a 2× solution of α,β-meATP producing a final concentration of 1 μM (P2X3) or 5 μM (P2X2/3). Fluorescence was measured for an additional 2 minutes at 1 second intervals after agonist addition. A final addition of ionomycin (5 μM, final concentration) was made to each well of the FLIPR test plate to establish cell viability and maximum fluorescence of dye-bound cytosolic calcium. Peak fluorescence in response to the addition of α,β-meATP (in the absence and presence of test compounds) was measured and inhibition curves generated using nonlinear regression. PPADS, a standard P2X antagonist, was used as a positive control.

rat P2X3 receptor = target: T2, rat P2X3 receptor (Rattus norvegicus, UniProt P49654); experiment: P2X3 FLIPR (Fluorometric Imaging Plate Reader) assay; format: cell-based; conditions: CHO-K1 cells transfected with rat P2X3, agonist α,β-meATP 1 μM, FLIPR calcium fluorescence; for Ki: read-out: pKi P2X3 (converted)
T2 construct: expressed in transfected cells; host or cells: CHO-K1
T2 sequence (P49654 1-397): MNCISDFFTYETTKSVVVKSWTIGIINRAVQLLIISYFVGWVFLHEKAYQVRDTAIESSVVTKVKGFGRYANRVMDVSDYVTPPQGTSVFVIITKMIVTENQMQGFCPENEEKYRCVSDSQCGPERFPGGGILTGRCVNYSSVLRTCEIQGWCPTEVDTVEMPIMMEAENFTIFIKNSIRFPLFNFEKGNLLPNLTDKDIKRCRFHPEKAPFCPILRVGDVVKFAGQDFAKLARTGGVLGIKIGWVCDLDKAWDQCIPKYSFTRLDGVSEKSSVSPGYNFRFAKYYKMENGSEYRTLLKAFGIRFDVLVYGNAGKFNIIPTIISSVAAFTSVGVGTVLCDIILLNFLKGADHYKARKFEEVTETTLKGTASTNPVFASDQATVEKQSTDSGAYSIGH
Method: as §1, §2

Row | Compound | Ki (human P2X2/3 receptor) | Ki (rat P2X3 receptor) | pKi P2X3 (rat P2X3 receptor)
1 | Cc1ccc(-c2cc(C(=O)NCc3cnc(C)cn3)cc(-n3c(=O)oc4ccccc43)c2)nc1 [Compound 1, N-(5-Methyl-pyrazin-2-ylmethyl)-3-(5-methyl-pyridin-2-yl)-5-(2-oxo-benzooxazol-3-yl)-benzamide] | 28.8 nM | 7.94 nM | –
2 | Cc1ccc(-c2cc(C(=O)NC(C)c3cnccn3)cc(-n3c(=O)[nH]c4ccccc43)c2)nc1 (stereo not shown) [Compound 4, 3-(5-Methyl-pyridin-2-yl)-5-(2-oxo-2,3-dihydro-benzoimidazol-1-yl)-N-(1-pyrazin-2-yl-ethyl)-benzamide] | 191 nM | 4.07 nM | –
3 | COC[C@@H](C)NC(=O)c1cc(-c2ccc(C)cn2)cc(N2C(=O)OC[C@H]2C(C)C)c1 [Compound 7, 3-((R)-4-Isopropyl-2-oxo-oxazolidin-3-yl)-N-((R)-2-methoxy-1-methyl-ethyl)-5-(5-methyl-pyridin-2-yl)-benzamide] | 562 nM | 5.25 nM | –
4 | Cc1ccc(-c2cc(C(=O)NCc3cnc(C)cn3)cc(N3C(=O)OCC3(C)C)c2)nc1 [Compound 21, 3-(4,4-Dimethyl-2-oxo-oxazolidin-3-yl)-N-(5-methyl-pyrazin-2-ylmethyl)-5-(5-methyl-pyridin-2-yl)-benzamide] | – | 3.55 nM | –
5 | CCC[C@@H]1COC(=O)N1c1cc(C(=O)N[C@@H](C)CO)cc(-c2ccc(C)cn2)c1 [Compound 22, N-((S)-2-Hydroxy-1-methyl-ethyl)-3-(5-methyl-pyridin-2-yl)-5-((R)-2-oxo-4-propyl-oxazolidin-3-yl)-benzamide] | – | 3800 nM | –
6 | CCC[C@@H]1COC(=O)N1c1cc(C(=O)NCc2cnc(C)cn2)cc(-c2ccc(C)cn2)c1 [Compound 24, N-(5-Methyl-pyrazin-2-ylmethyl)-3-(5-methyl-pyridin-2-yl)-5-((R)-2-oxo-4-propyl-oxazolidin-3-yl)-benzamide] | – | 166 nM | –
7 | Cc1ccc(-c2cc(C(=O)N[C@@H](C)CO)cc(N3C(=O)OCC3(C)C)c2)nc1 [Compound 25, 3-(4,4-Dimethyl-2-oxo-oxazolidin-3-yl)-N-((S)-2-hydroxy-1-methyl-ethyl)-5-(5-methyl-pyridin-2-yl)-benzamide] | – | 28.2 nM | –
8 | COCC(C)NC(=O)c1cc(-c2ccc(C)cc2)cc(N2CCNC2=O)c1 (stereo not shown) [Compound 35, 4′-Methyl-5-(2-oxo-imidazolidin-1-yl)-biphenyl-3-carboxylic acid (2-methoxy-1-methyl-ethyl)-amide] | – | – | 5.28
9 | COCC(C)NC(=O)c1cc(-c2ccc(C)cc2)cc(N2C(=O)CCC2C)c1 (stereo not shown) [Compound 36, 4′-Methyl-5-(2-methyl-5-oxo-pyrrolidin-1-yl)-biphenyl-3-carboxylic acid (2-methoxy-1-methyl-ethyl)-amide] | – | 575 nM | –

More lines, now with the values ahead:

Row | Ki (human P2X2/3 receptor) | Ki (rat P2X3 receptor) | pKi P2X3 (rat P2X3 receptor) | Compound
10 | 28.2 nM | 3.09 nM | – | Cc1ccc(-c2cc(C(=O)NC(C)c3cnccn3)cc(-n3c(=O)oc4ccccc43)c2)nc1 (stereo not shown) [Compound 2, 3-(5-Methyl-pyridin-2-yl)-5-(2-oxo-benzooxazol-3-yl)-N-(1-pyrazin-2-yl-ethyl)-benzamide]
11 | 234 nM | 3.31 nM | – | Cc1ccc(-c2cc(C(=O)N[C@@H](C)CO)cc(-n3c(=O)oc4ccccc43)c2)nc1 [Compound 3, N-((S)-2-Hydroxy-l-methyl-ethyl)-3-(5-methyl-pyridin-2-yl)-5-(2-oxo-benzooxazol-3-yl)-benzamide]
12 | 89.1 nM | 8.91 nM | – | Cc1ccc(-c2cc(C(=O)NCc3cnc(C)cn3)cc(N3C(=O)Cc4ccccc43)c2)nc1 [Compound 5, N-(5-Methyl-pyrazin-2-ylmethyl)-3-(5-methyl-pyridin-2-yl)-5-(2-oxo-2,3-dihydro-indol-1-yl)-benzamide]
13 | 117 nM | 7.41 nM | – | Cc1ccc(-c2cc(C(=O)NC(C)c3cnccn3)cc(N3C(=O)Cc4ccccc43)c2)nc1 (stereo not shown) [Compound 6, 3-(5-Methyl-pyridin-2-yl)-5-(2-oxo-2,3-dihydro-indol-1-yl)-N-(1-pyrazin-2-yl-ethyl)-benzamide]
14 | 132 nM | 2.69 nM | – | Cc1ccc(-c2cc(C(=O)NC3CC3)cc(N3C(=O)OC[C@H]3C(C)C)c2)nc1 [Compound 8, N-Cyclopropyl-3-((R)-4-isopropyl-2-oxo-oxazolidin-3-yl)-5-(5-methyl-pyridin-2-yl)-benzamide]
15 | 195 nM | 2.24 nM | – | Cc1ccc(-c2cc(C(=O)N[C@@H](C)CO)cc(N3C(=O)OC[C@H]3C(C)C)c2)nc1 [Compound 9, N-((S)-2-Hydroxy-1-methyl-ethyl)-3-((R)-4-isopropyl-2-oxo-oxazolidin-3-yl)-5-(5-methyl-pyridin-2-yl)-benzamide]
16 | – | 1000 nM | – | Cc1ccc(-c2cc(C(=O)NC(C)c3cnccn3)cc(N3C(=O)OC[C@H]3C)c2)nc1 (stereo partly drawn) [Compound 15, 3-((R)-4-Methyl-2-oxo-oxazolidin-3-yl)-5-(5-methyl-pyridin-2-yl)-N-(1-pyrazin-2-yl-ethyl)-benzamide]
17 | – | 85.1 nM | – | CCC[C@@H]1COC(=O)N1c1cc(C(=O)NC(C)c2cnccn2)cc(-c2ccc(C)cn2)c1 (stereo partly drawn) [Compound 23, 3-(5-Methyl-pyridin-2-yl)-5-((R)-2-oxo-4-propyl-oxazolidin-3-yl)-N-(1-pyrazin-2-yl-ethyl)-benzamide]
18 | – | 912 nM | – | Cc1ccc(-c2cc(C(=O)N[C@@H](C)CO)cc(N3C(=O)CCC3C)c2)nc1 (stereo partly drawn) [Compound 26, N-((S)-2-Hydroxy-1-methyl-ethyl)-3-(2-methyl-5-oxo-pyrrolidin-1-yl)-5-(5-methyl-pyridin-2-yl)-benzamide]
19 | – | 1480 nM | – | Cc1ccc(-c2cc(C(=O)NC3CC3)cc(N3C(=O)OC[C@@H]3C(C)C)c2)cc1 [Compound 42, 5-((S)-4-Isopropyl-2-oxo-oxazolidin-3-yl)-4′-methyl-biphenyl-3-carboxylic acid cyclopropylamide]
20 | – | 2570 nM | – | Cc1ccc(-c2cc(C(=O)N[C@@H](C)CO)cc(N3C(=O)OC[C@@H]3C(C)C)c2)cc1 [Compound 43, 5-((S)-4-Isopropyl-2-oxo-oxazolidin-3-yl)-4′-methyl-biphenyl-3-carboxylic acid ((S)-2-hydroxy-1-methyl-ethyl)-amide]
21 | – | 1020 nM | – | Cc1ccc(-c2cc(C(=O)NCc3cnc(C)cn3)cc(N3C(=O)OC[C@@H]3C(C)C)c2)cc1 [Compound 44, 5-((S)-4-Isopropyl-2-oxo-oxazolidin-3-yl)-4′-methyl-biphenyl-3-carboxylic acid (5-methyl-pyrazin-2-ylmethyl)-amide]
22 | – | 5250 nM | – | COCC(C)NC(=O)c1cc(-c2ccc(C)cc2)cc(N2CCNC2=O)c1 (stereo not shown) [Compound 52, 4′-Methyl-5-(2-oxo-imidazolidin-1-yl)-biphenyl-3-carboxylic acid (2-methoxy-1-methyl-ethyl)-amide]

From US8093275B2, “Oxazolone and pyrrolidinone-substituted pryidine amides as P2X3 and P2X2/3 antagonists” (Roche Palo Alto LLC, priority 2009, dated 2012)
